Measurements taken from publication PMC11358017, “Nucleotide metabolism in cancer cells fuels a UDP-driven macrophage cross-talk, promoting immunosuppression and immunotherapy resistance” (Nature Cancer, 2024).

Biological target: T1, P2Y6 (P2ry6^WT BMDMs) (Mus musculus, UniProt Q9ERK9)
T1 construct: native full-length receptor, endogenous in mouse bone marrow-derived macrophages (BMDMs); no tag
Experiment: Fura-2 intracellular calcium response, BMDMs, Hill fit
Format: cell-based
Settings: agonist, native mouse BMDMs, peak F340/F380 normalized to ionomycin, pH 7.4, response absent in P2ry6^ΔMy BMDMs

T1 sequence (Q9ERK9 whole entry): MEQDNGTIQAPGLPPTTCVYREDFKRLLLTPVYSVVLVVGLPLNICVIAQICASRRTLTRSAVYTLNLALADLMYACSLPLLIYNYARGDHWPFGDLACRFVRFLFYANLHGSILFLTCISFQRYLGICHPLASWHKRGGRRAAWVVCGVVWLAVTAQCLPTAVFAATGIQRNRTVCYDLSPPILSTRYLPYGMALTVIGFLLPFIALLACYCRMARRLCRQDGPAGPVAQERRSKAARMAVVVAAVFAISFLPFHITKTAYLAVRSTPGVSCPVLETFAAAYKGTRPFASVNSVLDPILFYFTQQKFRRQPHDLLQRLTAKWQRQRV

Row | EC50 (n = 6, possible conversion to UDP by ectonucleotidases) | EC50 (n = 3) | SMILES
1 | 103 ± 12 nM |  | O=c1ccn([C@@H]2O[C@H](COP(=O)(O)OP(=O)(O)OP(=O)(O)O)[C@@H](O)[C@H]2O)c(=O)[nH]1 [UTP]
2 |  | 42 ± 5 nM | O=c1ccn([C@@H]2O[C@H](COP(=O)(O)OP(=O)(O)O)[C@@H](O)[C@H]2O)c(=O)[nH]1 [UDP]
